These results are taken from US8183387B2, “Phenylpyrazole derivatives” (Taisho Pharmaceutical Co., Ltd, priority 2007, dated 2012).

Data set [1] concerns the target T1, human H3 receptor (Homo sapiens, UniProt Q9Y5N1). Briefly: [35S]GTP-γ-S binding test.
Procedure: After completion of the reaction, [^35S]GTP-γ-S (0.2 nM) was added and reacted for an additional 30 minutes. After completion of the reaction, the reaction mixture was subjected to suction filtration through a glass filter (GF/C). The glass filter was washed three times with 20 mM HEPES washing solution (pH 7.4) containing 100 mM sodium chloride and 1 mM magnesium chloride. After washing, the glass filter was dried and a scintillator was added thereto, followed by measurement of radioactivity on the filter using a liquid scintillation counter.
Binding of [^35S]GTP-γ-S in the absence of R(−)-α-methylhistamine was defined as non-specific binding, and the difference between total binding in the presence of R(−)-α-methylhistamine and non-specific binding was defined as specific binding of [^35S]GTP-γ-S. Fixed concentrations of [^35S]GTP-γ-S (0.2 nM) and R(−)-α-methylhistamine (100 μM) were reacted under the above conditions with each test drug at various concentrations to obtain an inhibition curve.
The target in data set [2] is T1, human H3 receptor. As to the kind of experiment: H3 receptor binding test (R(−)-α-methyl[3H]histamine). Details: purchased Euroscreen ES-392-M; host or cells: CHO-K1. As to conditions: inhibition of R(−)-α-methyl[3H]histamine (2 nM) binding, membrane of human H3 receptor-expressing CHO-K1 cells. The method, then: A membrane preparation of human H3 receptor-expressing CHO-K1 cells (Euroscreen, ES-392-M, 15 μg protein/200 μl), R(−)-α-methyl[^3H]histamine (Amersham, TRK-1017, specific activity: 1.74 TBq/mmol, 2 nM) and a test drug were reacted at room temperature for 1 hour. After completion of the reaction, the reaction mixture was subjected to suction filtration through a 0.3% polyethyleneimine-treated glass filter (GF/C). The glass filter was washed five times with 50 mM Tris-HCl washing solution (pH 7.4) containing 5 mM EDTA. After washing, the glass filter was dried and a scintillator was added thereto, followed by measurement of radioactivity on the filter using a liquid scintillation counter.
A fixed concentration (2 nM) of R(−)-α-methyl[^3H]histamine was reacted under the above conditions with each test drug at various concentrations to obtain an inhibition curve.

A further data set relates to CHL/IU cells. As to the kind of experiment: Cytotoxicity test. As to conditions: 48 hours culture, Cell counting kit-8. Format: cell-based, Chinese hamster. The method, then:
Chinese hamster lung fibroblast-derived CHL/IU cells (DS Pharma Biomedical Co., Ltd., Japan) were seeded, and the medium was replaced on the following day by another medium (MEM+2 mM L-Glutamine+10% CS (all purchased from Invitrogen)) containing a test compound at various concentrations, followed by culture for an additional 48 hours. Using a Cell counting kit-8 (Dojindo Laboratories, Japan), the survival rate of the cells was determined to obtain a curve whose horizontal axis represents the test compound concentration and whose vertical axis represents the survival rate. The curve thus obtained was used to determine the concentration of the test compound at which the survival rate was 50%. As a result, this concentration was 275, 441 and >640 mmol/L for the compounds of Examples 56, 62 and 70, respectively.

Data set [3] has as its target human recombinant μ receptor (Homo sapiens, UniProt P35372). As to the kind of experiment: [3H]diprenorphine binding test. Conditions: read-out: % Inhibition (10 μM), μ receptor.
Procedure: Affinity for μ receptor was evaluated in a [^3H]diprenorphine binding test by Cerep, Inc. The μ receptor preparation used was human recombinant μ receptor. […] Binding of [^3H]diprenorphine in the presence of 1 μM naltrexone was defined as non-specific binding, and the difference between total binding and non-specific binding of [^3H]diprenorphine was defined as specific binding of [^3H]diprenorphine.
Data set [4] concerns the target T2, rat recombinant κ receptor (Rattus norvegicus, UniProt P34975).
T2 construct: Cerep, Inc. (contract assay)
As to the kind of experiment: [3H]U69593 binding test. Conditions: [3H]U69593 1 nM. The method, then:
Affinity for κ receptor was evaluated in a [^3H]U69593 binding test by Cerep, Inc. The κ receptor preparation used was rat recombinant κ receptor. The rat recombinant κ receptor was incubated with [^3H]U69593 (1 nM) at 22° C. for 60 minutes.

The test system of another data set is Sprague-Dawley rats. Briefly: Social recognition test. Format: in vivo, rat. The method, then: This experiment was performed with Sprague-Dawley rats (male) according to the reported method (Shimazaki et al., European Journal of Pharmacology, 575, 94-97, 2007). Adult rats (9 weeks of age) were placed in a test cage and acclimated for 30 minutes. After 30 minutes, juvenile rats (4 weeks of age) were placed in the same test cage containing the adult rats, and allowed to stand for 5 minutes. During this 5 minutes, the time taken for the adult rats to show social behavior (sniffing, grooming, following) to the juvenile rats was measured (first exploratory time). Then, the rats were removed from the test cage and returned to their respective home cages. After 85 minutes, the adult rats were placed again in the test cage and acclimated for 30 minutes. The same juvenile rats as used in the first exploratory were placed in the test cage, followed by measuring the time taken for the adult rats to show social behavior (sniffing, grooming, following) to the juvenile rats during 5 minutes (second exploratory time). The social recognition was expressed as the ratio of second exploratory time/first exploratory time. A test substance (the compound of Example 70) was orally administered to the adult rats immediately after their first social behavior.

Data set [5] concerns the target T3, human recombinant δ receptor (Homo sapiens, UniProt P41143).
T3 construct: Cerep, Inc. (contract assay)
As to the kind of experiment: [3H]DADLE binding test. As to conditions: [3H]DADLE 0.5 nM. The method, then: Affinity for δ receptor was evaluated in a [^3H]DADLE binding test by Cerep, Inc. The δ receptor preparation used was human recombinant δ receptor. The human recombinant δ receptor was incubated with [^3H]DADLE (0.5 nM) at 22° C. for 120 minutes.

A further data set addresses T4, σ1 receptor (Homo sapiens, UniProt Q99720).
T4 construct: host or cells: Jurkat cells (membrane)
Briefly: [3H](+)pentazocine binding test. Conditions: [3H](+)pentazocine 8 nM, Jurkat cell membrane. The method, then: Affinity for σ1 receptor was evaluated in a [^3H](+)pentazocine binding test by Cerep, Inc. The σ1 receptor preparation used was the membrane of Jurkat cells. The Jurkat cell membrane was incubated with [^3H](+)pentazocine (8 nM) at 22° C. for 120 minutes.

A short description of data set [6]: Distribution test in rats. In kind it is in vivo, rat. As to conditions: SD rats, single oral dose 3 mg/kg (2.75 mg/kg as a free form); plasma and organs at 1, 2, 4, 8 and 24 hours. The method, then:
SD rats were used and orally administered once with the compound of Example 70 at a dose of 3 mg/kg (2.75 mg/kg as a free form) to confirm the tissue distribution of the compound in plasma, brain, liver, kidney, spleen, lung, heart, muscle, fat, testis, bone marrow and adrenal gland at 1, 2, 4, 8 and 24 hours after administration. For quantification, high performance liquid chromatography/tandem mass spectrometry (LC-MS/MS) was used.

Data set [7] in a line: Metabolic stability test in human liver. As to conditions: liver microsomes, pH 7.4; human liver microsome 1 mg protein/mL, test compound 1 μM, 37° C. Format: in vitro ADME. The method, then:
Using human liver microsome (Xenotech, H0630), the in vitro metabolic half-life was calculated. A reaction solution (300 μL) was prepared to contain a test compound at 1 μM in 250 mM Na—K-phosphate buffer (pH 7.4) containing, at final concentrations, 2.4 mM MgCl2, 1.5 mM glucose-6-phosphate (G-6-P), 0.18 U/mL glucose-6-phosphate dehydrogenase (G-6-P DH), 69 mM KCl, 0.16 mM (3-nicotinamide-adenine dinucleotide phosphate, oxidized form (NADP) and 1 mg microsomal protein/mL. After pre-incubation at 37° C. for 5 minutes, the NADP solution was added to initiate the reaction. The incubation time was set to 0, 10, 20, 30, 45 or 60 minutes. The reaction was stopped by addition of a CH3CN:CH3OH (1:1) solution in the same volume as that of the reaction solution. The sample after the reaction was centrifuged at 3639×g at 4° C. for 10 minutes, and the resulting supernatant was analyzed by LC/MS. Using the time period during which linearity was observed, the metabolic half-life was calculated from the slope.

A value given as a limit tells only on which side of the number the result lay.

T1 sequence (Q9Y5N1 whole entry): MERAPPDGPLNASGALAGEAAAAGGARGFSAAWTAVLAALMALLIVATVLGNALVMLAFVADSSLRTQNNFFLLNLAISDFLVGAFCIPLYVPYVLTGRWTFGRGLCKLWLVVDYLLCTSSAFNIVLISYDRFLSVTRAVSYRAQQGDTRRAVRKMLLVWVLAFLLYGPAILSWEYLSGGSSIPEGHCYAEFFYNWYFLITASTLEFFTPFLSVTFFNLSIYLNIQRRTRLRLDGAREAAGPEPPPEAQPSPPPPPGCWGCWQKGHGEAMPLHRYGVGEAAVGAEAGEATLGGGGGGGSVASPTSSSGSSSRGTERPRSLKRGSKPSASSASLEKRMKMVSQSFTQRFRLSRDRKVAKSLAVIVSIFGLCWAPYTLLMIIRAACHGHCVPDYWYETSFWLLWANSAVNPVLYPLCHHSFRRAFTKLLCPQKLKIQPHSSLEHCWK
T4 sequence (Q99720 whole entry): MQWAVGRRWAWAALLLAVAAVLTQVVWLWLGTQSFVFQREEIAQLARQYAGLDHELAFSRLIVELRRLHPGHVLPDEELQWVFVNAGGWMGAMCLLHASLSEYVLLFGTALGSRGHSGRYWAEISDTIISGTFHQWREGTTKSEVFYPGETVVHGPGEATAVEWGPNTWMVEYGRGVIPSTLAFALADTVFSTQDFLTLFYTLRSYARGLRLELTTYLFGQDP
T3 sequence (P41143 whole entry): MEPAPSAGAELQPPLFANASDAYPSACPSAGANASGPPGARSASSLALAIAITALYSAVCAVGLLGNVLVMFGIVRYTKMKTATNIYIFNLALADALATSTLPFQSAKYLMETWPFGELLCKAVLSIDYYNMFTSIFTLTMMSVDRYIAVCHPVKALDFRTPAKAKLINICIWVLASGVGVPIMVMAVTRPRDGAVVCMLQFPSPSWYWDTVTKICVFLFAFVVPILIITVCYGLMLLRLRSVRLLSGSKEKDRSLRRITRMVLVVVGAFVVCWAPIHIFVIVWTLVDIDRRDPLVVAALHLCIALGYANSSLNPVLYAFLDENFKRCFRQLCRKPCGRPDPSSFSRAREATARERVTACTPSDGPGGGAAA
Chain of human recombinant μ receptor (P35372 whole entry): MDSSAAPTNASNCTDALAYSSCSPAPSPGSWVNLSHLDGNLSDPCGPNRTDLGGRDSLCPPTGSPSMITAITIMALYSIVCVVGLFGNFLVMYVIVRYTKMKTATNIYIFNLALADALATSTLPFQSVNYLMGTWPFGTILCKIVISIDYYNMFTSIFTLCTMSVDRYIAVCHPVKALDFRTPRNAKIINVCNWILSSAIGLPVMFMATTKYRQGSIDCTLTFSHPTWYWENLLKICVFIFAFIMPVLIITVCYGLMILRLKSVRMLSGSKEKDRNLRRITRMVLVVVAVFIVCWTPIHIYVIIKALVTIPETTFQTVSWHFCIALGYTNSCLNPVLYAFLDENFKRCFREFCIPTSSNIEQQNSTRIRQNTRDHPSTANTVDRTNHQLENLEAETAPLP
T2 sequence (P34975 whole entry): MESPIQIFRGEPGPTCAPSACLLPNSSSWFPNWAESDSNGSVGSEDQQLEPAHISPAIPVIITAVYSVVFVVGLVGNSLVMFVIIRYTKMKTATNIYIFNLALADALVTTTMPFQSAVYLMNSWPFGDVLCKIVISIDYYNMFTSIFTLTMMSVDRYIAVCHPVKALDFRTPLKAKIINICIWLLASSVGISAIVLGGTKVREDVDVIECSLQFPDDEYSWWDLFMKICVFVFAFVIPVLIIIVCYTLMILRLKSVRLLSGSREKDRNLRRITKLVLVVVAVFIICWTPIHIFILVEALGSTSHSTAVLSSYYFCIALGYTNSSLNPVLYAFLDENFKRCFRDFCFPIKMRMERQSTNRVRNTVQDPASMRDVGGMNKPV

On to `C[C@@H]1CCCN1CCCOc1ccc(-n2cc(N3CCCC3=O)cn2)cc1` [Example 30, 1-[1-(4-{3-[(2R)-2-methylpyrrolidin-1-yl]propoxy}phenyl)-1H-pyrazol-4-yl]pyrrolidine-2-one], for which the IC50 on human H3 receptor [1] stood at 1.7 nM; on human H3 receptor [2], 3.3 nM.
`C[C@@H]1CCCN1CCCOc1ccc(-n2cc(C(=O)N3CCOCC3)cn2)cc1F` [Example 62, [1-(3-fluoro-4-{3-[(2R)-2-methylpyrrolidin-1-yl]propoxy}phenyl)-1H-pyrazol-4-yl](morpholin-4-yl)methanone]: the “concentration of the test compound at which the survival rate was 50%” value with CHL/IU cells amounted to 441000 µM. In addition, the IC50 on human H3 receptor [2] was 8.7 nM.
For `C[C@@H]1CCCN1CCCOc1ccc(-n2cc(C(=O)N3CCOCC3)cn2)cc1.Cl` [Example 70, 4-{[1-(4-{3-[(2R)-2-methylpyrrolidin-1-yl]propoxy}phenyl)-1H-pyrazol-4-yl]carbonyl}morpholine monohydrochloride], the inhibition at 10 µM in data set [3] is 3%; in data set [4], 17%; in data set [5] it was -1%; on σ1 receptor, 28%. Also, the “concentration of the test compound at which the survival rate was 50%” value in the data set on CHL/IU cells was above 640000 µM. For the same molecule, the “effect on cognitive functions” value in the data set on Sprague-Dawley rats (10 mg/kg oral, rats, compared to vehicle group) is given as “had an enhancing effect on cognitive functions”. Besides, the “Ratio (second exploratory time/first exploratory time)” value in the data set with Sprague-Dawley rats (10 mg/kg orally to adult rats immediately after first social behavior, n = 18, p<0.01 vs vehicle) was 0.66 ± 0.06^p<0.01. For the same molecule, the “tissue distribution of unchanged form and major metabolites” value in [6] is “rapidly disappear from each organ”.
In data set [7], `C[C@@H]1CCCN1CCCOc1ccc(-n2cc(C(=O)N3CCOCC3)cn2)cc1` [Example 6, 4-{[1-(4-{3-[(2R)-2-methylpyrrolidin-1-yl]propoxy}phenyl)-1H-pyrazol-4-yl]carbonyl}morpholine] returned a half-life at 1 μM of at least 3 h.
`C[C@@H]1CCCN1CCCOc1ccc(-n2cc(C(=O)N3CCCC3)cn2)cc1` [Example 56, [1-(4-{3-[(2R)-2-methylpyrrolidin-1-yl]propoxy}phenyl)-1H-pyrazol-4-yl](pyrrolidin-1-yl)methanone]: the “concentration of the test compound at which the survival rate was 50%” value with CHL/IU cells was found to be 275000 µM. Besides, the IC50 on human H3 receptor [2] was found to be 2.8 nM.
